Test results taken from patent publication US8937038B2, “Composition containing peptide ligand that bonds with CXCR2 for treating infective and inflammatory diseases” (priority 2010, dated 2015).

Assays:
[1] = tested on: mouse neutrophils; test: H2O2 production in mouse neutrophils; type: cell-based; settings: various concentrations, 10 minutes, cytochalasin B 5 μM; FIG. 12
Experimental: (§1) Mouse neutrophils were separated from peripheral blood using a Histopaque-1077 solution (Sigma) (Bae Y S et al. 2001 Blood. 97: 2854-2862). The neutrophils separated from normal mice were stimulated with various concentrations of Ac-PGP for 10 minutes in the presence of cytochalasin B (5 μM). To identify the role of mCXCR2, the neutrophils were pre-incubated in various concentrations of SB225002 or a vehicle (DMSO) for 30 minutes in a stationary environment, and Ac-PGP (20 μM) was added, and incubated for 10 minutes. H2O2 in a supernatant was measured using a H2O2 measurement kit (Molecular probe).
A death rate by CLP is correlated with the number of bacterial colonies in a peritoneal fluid. Therefore, an effect of the Ac-PGP on removal of bacteria in a peritoneal fluid was examined. […] In vitro disinfection activity of the Ac-PGP was examined using neutrophils derived from a mouse. The mouse neutrophils were kept for an hour to phagocytize E. coli, and then stimulated with various concentrations of Ac-PGP (0.1 to 100 nM) for 20 minutes. […] A reactive oxygen species such as hydrogen peroxide was known as an important molecule participating in the disinfection activity. Therefore, an effect of Ac-PGP on production of hydrogen peroxide in the mouse neutrophils was examined. […]

[2] = tested on: mouse neutrophils; test: Disinfection activity of mouse neutrophils phagocytizing E. coli; type: cell-based; settings: Ac-PGP 0.1 to 100 nM for 20 minutes, FIG. 11
Experimental: as §1
The disinfection activities of the neutrophils were measured according to a method disclosed by Yan et al. (Yan J J et al. 2004 Nat. Med. 10:161-167). The neutrophils were stationarily incubated at 37° C. for an hour on a 13 mm plastic cover slip in a 60 mm plastic culture dish. The non-attached cells were removed by PBS. The attached neutrophils were stationarily incubated for an hour with 10^6 opsonized E. coli cells. The non-phagocytized E. coli cells were washed, and the number of bacteria surviving in the neutrophils was determined before and after the E. coli cells were treated with various concentrations of Ac-PGP or vehicle for an hour. A percentage of the apoptosized bacteria was calculated as follows. […]

[3] = tested on: mice into which LPS was intraperitoneally injected; test: Survival in LPS-induced sepsis model; type: in vivo, mouse; settings: 60 mg/kg LPS intraperitoneally; FIG. 4
Experimental: (§2) Male WT ICR mice were used to evaluate a therapeutic effect of Ac-PGP. IFN-γ-deficient mice (kindly provided by Y. K. Kim at the Pohang University of Science and Technology, Pohang, Republic of Korea) were used for mechanism study. All Examples in which animals were used were performed according to the instructions with permission of the Institutional Review Board (IRB) for the care and management of laboratory animals at Dong-A University. In the case of the CLP, mice were anesthetized with pentothal sodium (50 mg/kg, intraperitoneally injected), and abdomen of each mouse was cut along a central cutting line to expose an appendix. Then, an ileocecal valve of the appendix was tied up, both surfaces of the ileocecal valve were punctured twice with a 22-gauge needle (or punctured once to measure a production amount of cytokines), and the abdomen was sutured. Sham CLP mice were treated in the same manner as described above, except that CLP of the appendix was not performed. A survival rate of the mice was monitored every day for 10 days. In the case of the LPS or E. coli model, E. coli and LPS were intraperitoneally injected at concentrations of 1×10^9 cells/mouse and 60 mg/kg, respectively. A survival rate of the mice was monitored once a day for 10 days.
(§3) In another mouse model of sepsis, a therapeutic effect of Ac-PGP was also evaluated.

[4] = tested on: bacteria in peritoneal fluids of CLP mice; test: In vivo disinfection activity: bacterial colonies in peritoneal fluid after CLP; set-up: species or system mouse; reference not given here; settings: 24 hours after the CLP; FIG. 10
Experimental: A peritoneal lavage fluid was collected 24 hours after CLP, and incubated at 37° C. overnight in a blood agar base plate (trypticase soy agar Deeps, Becton Dickinson). The number of colony forming units (CFUs) was counted according to a method disclosed in Yan J J et al. 2004 Nat. Med. 10:161-167.
A death rate by CLP is correlated with the number of bacterial colonies in a peritoneal fluid. Therefore, an effect of the Ac-PGP on removal of bacteria in a peritoneal fluid was examined. […] In vitro disinfection activity of the Ac-PGP was examined using neutrophils derived from a mouse. The mouse neutrophils were kept for an hour to phagocytize E. coli, and then stimulated with various concentrations of Ac-PGP (0.1 to 100 nM) for 20 minutes. […] A reactive oxygen species such as hydrogen peroxide was known as an important molecule participating in the disinfection activity. Therefore, an effect of Ac-PGP on production of hydrogen peroxide in the mouse neutrophils was examined. […] To examine a role of CXCR2 in production of hydrogen peroxide by the Ac-PGP, the mouse neutrophils were pretreated with a CXCR2 antagonist (SB225002) before they were treated with the Ac-PGP.

[5] = tested on: CLP mice; test: Survival of CLP sepsis mice; type: in vivo, mouse
Experimental: as §2
An experimental therapeutic effect of Ac-PGP on sepsis was examined in CLP using albino Institute of Cancer Research (ICR) mice. Survival of the mice was monitored for 10 days after CLP. On the second day after the CLP, only 20% of untreated WT mice survived (FIG. 1).
The Ac-PGP was evaluated to determine whether the antiseptic activity of Ac-PGP served through CXCR2 that was a known receptor of Ac-PGP.

[6] = tested on: human neutrophils; test: Disinfection activity of human neutrophils against opsonized E. coli; type: cell-based; settings: FIG. 27
Excerpt: All kinds of protocols used in human beings were approved by the Institutional Review Board (IRB) at Dong-A University Hospital, and prior consents were obtained from all blood donors. Peripheral blood was collected from healthy donors, and human peripheral monocytes were separated using a Histopaque-1077 gradient. Neutrophils were separated through methods such as dextran precipitation of red blood cell, hypotonic lysis, and usage of lymphocyte isolation medium gradient, as known in the related art (Bae, Y. S. et al. Blood 97, 2854-2862(2001)). The separated human leukocytes were used immediately.
The disinfection activities of the neutrophils were measured according to a method disclosed by Yan et al. (Yan J J et al. 2004 Nat. Med. 10:161-167). The neutrophils were stationarily incubated at 37° C. for an hour on a 13 mm plastic cover slip in a 60 mm plastic culture dish. The non-attached cells were removed by PBS. The attached neutrophils were stationarily incubated for an hour with 10^6 opsonized E. coli cells. The non-phagocytized E. coli cells were washed, and the number of bacteria surviving in the neutrophils was determined before and after the E. coli cells were treated with various concentrations of Ac-PGP or vehicle for an hour. A percentage of the apoptosized bacteria was calculated as follows. 100×(1−CFU Number after stimulus with Ac-PGP/CFU Number before stimulus with Ac-PGP)
Since Ac-PGP strongly promoted the disinfection activity of the mouse neutrophils, a bacteriocidal effect of the Ac-PGP on human neutrophils was examined.

[7] = tested on: E. coli-vaccinated mice; test: Survival in E. coli-induced sepsis model; type: in vivo; settings: E. coli 1×10^9 cells/mouse; 17.5 mg/kg four times from 2 hours after vaccination; compared with PBS
Experimental: as §2, §3

acetylated-Pro-Gly-Pro [Ac-PGP]
production of hydrogen peroxide [1]: strongly increased production of hydrogen peroxide in a concentration-dependent manner | disinfection activity [2]: highly increased the disinfection activity in a dose-dependent manner | mortality [3]: decreased mortality | number of bacterial colonies in the peritoneal fluid [4]: 82.1% | survival rate ([5]; 17.5 mg/kg injected 3 or 4 times from 2 hours after CLP at an interval of 12 hours, FIG. 2): highly increased | survival rate ([5]; CLP mice pretreated with CXCR2-selective antagonist SB225002, FIG. 5): could not improve the survival rate | survival rate ([5]; CXCR2-deficient sepsis mice, FIG. 6): could not improve a survival rate | survival rate ([5]; administered 4 to 5 times at 17.5 mg/kg): highest increase in survival rate | therapeutic effect (survival) ([5]; injected 10 hours after the CLP, FIG. 3): a therapeutic effect was still exhibited | survival of the mice ([5]; injection of 7.5, 12.5 or 17.5 mg/kg, compared with PBS-injected control, FIG. 1): remarkably increased survival of the mice | survival rate ([5]; subcutaneous administration 2 hours after CLP, various doses, monitored 10 days, FIG. 1): remarkably increased the survival rate in a dose-dependent manner | killing of opsonified E. coli ([6]; 20 nM): almost completely killed opsonified E. coli | disinfection activity ([6]; 100 nM): remarkably improved the disinfection activity | bacterial killing by the human neutrophils ([6]; various concentrations): dose-dependent effect on bacterial killing | death rate [7]: death rate decreased
